In patent US20250230147A1, “LACTAMS AS CBL-B INHIBITORS” (Genentech, Inc., priority 2021, published 2025):
Counter-ions that a name gives are not always drawn.

Tests used:
Cbl-b = Cbl-b (Homo sapiens (Human), UniProt Q13191); assay: Cbl-b LCK Ub TR-FRET assay (Cbl-b Lck HTRF); format: biochemical
Method in brief: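 Biotin-Cbl-b preincubated with compound (10-point 3-fold series) 60 min, then His-LCK with 1 mM ATP (2× mixture) added for 90 min at room temperature. Ubiquitination detected by TR-FRET using HA-ubiquitin/UBE2D2 adduct, anti-HA-D2 and streptavidin-Eu; IC50 normalised to no-LCK and DMSO controls.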

c-Cbl = c-Cbl (Homo sapiens (Human), UniProt P22681); assay: C-Cbl LCK Ub TR-FRET assay (c-cbl Lck HTRF); format: biochemical; conditions: for (fold-selectivity): C-cbl Lck HTRF IC50 relative to Cbl-b Lck HTRF IC50
c-Cbl, sequence (P22681 47-435): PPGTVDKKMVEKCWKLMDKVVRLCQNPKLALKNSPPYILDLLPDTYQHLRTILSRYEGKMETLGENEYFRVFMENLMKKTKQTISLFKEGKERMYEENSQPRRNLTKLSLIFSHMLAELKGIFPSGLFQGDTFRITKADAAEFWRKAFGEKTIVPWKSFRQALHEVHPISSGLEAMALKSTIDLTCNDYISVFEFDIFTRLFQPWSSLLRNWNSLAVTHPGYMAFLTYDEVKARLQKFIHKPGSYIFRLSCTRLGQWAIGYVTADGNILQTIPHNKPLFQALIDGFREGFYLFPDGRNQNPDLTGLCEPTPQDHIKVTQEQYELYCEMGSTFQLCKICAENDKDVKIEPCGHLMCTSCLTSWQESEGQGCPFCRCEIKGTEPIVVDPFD
Method in brief: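 After the ubiquitination reaction, detection mixture was added and plates incubated 20 min at room temperature before reading. IC50 values were calculated with wells lacking LCK as the low control and DMSO as the high control.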

Cbl-b, sequence (Q13191 40-426): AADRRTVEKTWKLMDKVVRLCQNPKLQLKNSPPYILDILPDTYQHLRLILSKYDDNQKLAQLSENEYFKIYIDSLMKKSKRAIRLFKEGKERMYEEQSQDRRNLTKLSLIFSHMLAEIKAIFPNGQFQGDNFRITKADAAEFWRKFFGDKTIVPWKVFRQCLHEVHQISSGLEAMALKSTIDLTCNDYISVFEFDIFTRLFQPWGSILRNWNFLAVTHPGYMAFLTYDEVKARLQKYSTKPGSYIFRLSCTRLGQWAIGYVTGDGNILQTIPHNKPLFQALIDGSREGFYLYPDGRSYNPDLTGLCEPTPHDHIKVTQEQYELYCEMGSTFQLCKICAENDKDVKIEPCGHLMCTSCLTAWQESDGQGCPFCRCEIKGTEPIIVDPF

Cn1cnnc1[C@@H](F)C1(c2cccc(N3Cc4c(cc(Oc5cn[nH]c5)cc4C(F)(F)F)C3=O)c2)COC1 [Compound 117, (S)-6-((1H-pyrazol-4-yl)oxy)-2-(3-(3-(fluoro(4-methyl-4H-1,2,4-triazol-3-yl)methyl)oxetan-3-yl)phenyl)-4-(trifluoromethyl)isoindolin-1-one]
IC50 (Cbl-b): 540 nM | IC50 (c-Cbl): 750 nM | (fold-selectivity) (c-Cbl): 1.4x

Cn1cnnc1CC1(c2cc(NC3CC=CC3)nc(N3Cc4c(cccc4C(F)(F)F)C3=O)c2)COC1 [Compound 484, 2-(6-(cyclopent-3-en-1-ylamino)-4-(3-((4-methyl-4H-1,2,4-triazol-3-yl)methyl)oxetan-3-yl)pyridin-2-yl)-4-(trifluoromethyl)isoindolin-1-one]
IC50 (Cbl-b): 230 nM | IC50 (c-Cbl): 1200 nM | (fold-selectivity) (c-Cbl): (4.8x)

Cn1cnnc1CC1(c2cc(Cl)nc(N3Cc4c(cc(CNC5(C)CCC5)cc4C(F)(F)F)C3=O)c2)CCC1 [Compound 351, 2-(6-chloro-4-(1-((4-methyl-4H-1,2,4-triazol-3-yl)methyl)cyclobutyl)pyridin-2-yl)-6-(((1-methylcyclobutyl)amino)methyl)-4-(trifluoromethyl)isoindolin-1-one formate]
IC50 (Cbl-b): 33 nM | IC50 (c-Cbl): 19 nM

Cn1cnnc1CC1(c2cccc(N3Cc4c(cc(C5CCCN5)cc4C(F)(F)F)C3=O)c2)COC1.O=CO (racemic) [Compound 11, 2-(3-(3-((4-methyl-4H-1,2,4-triazol-3-yl)methyl)oxetan-3-yl)phenyl)-6-(pyrrolidin-2-yl)-4-(trifluoromethyl)isoindolin-1-one formate]
IC50 (Cbl-b): 420 nM | IC50 (c-Cbl): 620 nM | (fold-selectivity) (c-Cbl): 1.5x

COc1cccc2c1CN(c1cccc(C3([C@@H](F)c4nncn4C)COC3)c1)C2=O [Compound 206, (R)-2-(3-(3-(fluoro(4-methyl-4H-1,2,4-triazol-3-yl)methyl)oxetan-3-yl)phenyl)-4-methoxyisoindolin-1-one]
IC50 (Cbl-b): 1500 nM | IC50 (c-Cbl): 2300 nM | (fold-selectivity) (c-Cbl): 1.5x

Cn1cnnc1[C@H](F)C1(c2cccc(N3Cc4c(cc(CN5CCC[C@H]5CO)cc4C(F)(F)F)C3=O)c2)COC1 [Compound 149, 2-(3-(3-((R)-fluoro(4-methyl-4H-1,2,4-triazol-3-yl)methyl)oxetan-3-yl)phenyl)-6-(((S)-2-(hydroxymethyl)pyrrolidin-1-yl)methyl)-4-(trifluoromethyl)isoindolin-1-one]
IC50 (Cbl-b): 380 nM | IC50 (c-Cbl): 390 nM | (fold-selectivity) (c-Cbl): 1.0x

CCNc1cc(N2Cc3c(cc(CNCC4CC4)cc3C(F)(F)F)C2=O)cc(C2(Cc3nncn3C)CCC2)c1 [Compound 457, 6-(((cyclopropylmethyl)amino)methyl)-2-(3-(ethylamino)-5-(1-((4-methyl-4H-1,2,4-triazol-3-yl)methyl)cyclobutyl)phenyl)-4-(trifluoromethyl)isoindolin-1-one]
IC50 (Cbl-b): 17 nM | IC50 (c-Cbl): 12 nM | (fold-selectivity) (c-Cbl): (0.71x)

CC(C)[C@H]1CN(C2CC2)CCN1Cc1cc2c(c(C(F)(F)F)c1)CN(c1cccc(C3([C@@H](F)c4nncn4C)COC3)c1)C2=O [Compound 405, 6-(((S)-4-cyclopropyl-2-isopropylpiperazin-1-yl)methyl)-2-(3-(3-((R)-fluoro(4-methyl-4H-1,2,4-triazol-3-yl)methyl)oxetan-3-yl)phenyl)-4-(trifluoromethyl)isoindolin-1-one]
IC50 (Cbl-b): 18 nM | IC50 (c-Cbl): 16 nM | (fold-selectivity) (c-Cbl): (0.91x)

CC(C)[C@@H]1CNCCN1Cc1cc2c(c(C(F)(F)F)c1)CN(c1cccc(C3([C@@H](F)c4nncn4C)COC3)c1)C2=O [Compound 94, 2-(3-(3((R)-fluoro(4-methyl-4H-1,2,4-triazol-3-yl)methyl)oxetan-3-yl)phenyl)-6-(((R)-2-isopropylpiperazin-1-yl)methyl)-4-(trifluoromethyl)isoindolin-1-one]
IC50 (Cbl-b): 180 nM | IC50 (c-Cbl): 200 nM | (fold-selectivity) (c-Cbl): 1.1x

CNCc1cc2c(c(C(F)(F)F)c1)CN(c1cccc(C3([C@@H](F)c4nncn4C)COC3)c1)C2=O [Compound 212, (R)-2-(3-(3-(fluoro(4-methyl-4H-1,2,4-triazol-3-yl)methyl)oxetan-3-yl)phenyl)-6-((methylamino)methyl)-4-(trifluoromethyl)isoindolin-1-one]
IC50 (Cbl-b): 75 nM | IC50 (c-Cbl): 130 nM | (fold-selectivity) (c-Cbl): 1.7 x

CCOc1cc(C2(Cc3nncn3C)COC2)cc(N2Cc3c(cc(CN4CCC(F)(F)[C@H](C)C4)cc3C(F)(F)F)C2=O)n1 [Compound 375, (R)-6-((4,4-difluoro-3-methylpiperidin-1-yl)methyl)-2-(6-ethoxy-4-(3-((4-methyl-4H-1,2,4-triazol-3-yl)methyl)oxetan-3-yl)pyridin-2-yl)-4-(trifluoromethyl)isoindolin-1-one]
IC50 (Cbl-b): 22 nM | IC50 (c-Cbl): 14 nM | (fold-selectivity) (c-Cbl): (0.65x)

CSc1cc(C2(Cc3nncn3C)CCC2)cc(N2Cc3c(cc(CNC4(C)CCC4)cc3C(F)(F)F)C2=O)n1 [Compound 251, 2-(4-(1-((4-methyl-4H-1,2,4-triazol-3-yl)methyl)cyclobutyl)-6-(methylthio)pyridin-2-yl)-6-(((1-methylcyclobutyl)amino)methyl)-4-(trifluoromethyl)isoindolin-1-one]
IC50 (Cbl-b): 11 nM | IC50 (c-Cbl): 8.4 nM | (fold-selectivity) (c-Cbl): (0.76x)

Cc1ccn(CC2(c3cccc(N4Cc5c(cc(CN6CCN(C)C[C@@H]6C(C)C)cc5C(F)(F)F)C4=O)c3)COC2)n1 [Compound 264, (S)-6-((2-isopropyl-4-methylpiperazin-1-yl)methyl)-2-(3-(3-((3-methyl-1H-pyrazol-1-yl)methyl)oxetan-3-yl)phenyl)-4-(trifluoromethyl)isoindolin-1-one]
IC50 (Cbl-b): 7100 nM | IC50 (c-Cbl): 11000 nM | (fold-selectivity) (c-Cbl): (1.5x)

Cn1cnnc1[C@@H](F)C1(c2cccc(N3Cc4c(cc(CN5CCC[C@@H](CO)C5)cc4C(F)(F)F)C3=O)c2)COC1 [Compound 152, 2-(3-(3-((S)-fluoro(4-methyl-4R-1,2,4-triazol-3-yl)methyl)oxetan-3-yl)phenyl)-6-(((R)-3-(hydroxymethyl)piperidin-1-yl)methyl)-4-(trifluoromethyl)isoindolin-1-one]
IC50 (Cbl-b): 220 nM | IC50 (c-Cbl): 280 nM | (fold-selectivity) (c-Cbl): 1.3x

Cn1cnnc1[C@@H](F)C1(c2cccc(N3Cc4c(cc(CN5CCC(C)(O)CC5)cc4C(F)(F)F)C3=O)c2)COC1 [Compound 142, (S)-2-(3-(3-(fluoro(4-methyl-4H-1,2,4-triazol-3-yl)methyl)oxetan-3-yl)phenyl)-6-((4-hydroxy-4-methylpiperidin-1-yl)methyl)-4-(trifluoromethyl)isoindolin-1-one]
IC50 (Cbl-b): 230 nM | IC50 (c-Cbl): 430 nM | (fold-selectivity) (c-Cbl): 1.9x

Cn1cnnc1[C@H](F)C1(c2cccc(N3Cc4c(cccc4-c4ccccc4)C3=O)c2)COC1 [Compound 210, (R)-2-(3-(3-(fluoro(4-methyl-4H-1,2,4-triazol-3-yl)methyl)oxetan-3-yl)phenyl)-4-phenylisoindolin-1-one]
IC50 (Cbl-b): > 20000 nM | IC50 (c-Cbl): > 20000 nM | (fold-selectivity) (c-Cbl): 1.0x

Cn1cnnc1[C@H](F)[C@](C)(F)c1cccc(N2Cc3c(cc(CN4CC(C)(F)C4)cc3C(F)(F)F)C2=O)c1 [Compound 31, 2-(3-((1 S,2R)-1,2-difluoro-1-(4-methyl-4H-1,2,4-triazol-3-yl)propan-2-yl)phenyl)-6-((3-fluoro-3-methylazetidin-1-yl)methyl)-4-(trifluoromethyl)isoindolin-1-one]
IC50 (Cbl-b): 88 nM | IC50 (c-Cbl): 130 nM | (fold-selectivity) (c-Cbl): 1.4x

Cn1cnnc1CC1(c2cccc(N3Cc4c(cc(CNCC5CCOC5)cc4C(F)(F)F)C3=O)c2)CC(F)(F)C1 (stereo not shown) [Compound 358, 2-(3-(3,3-difluoro-1-((4-methyl-4H-1,2,4-triazol-3-yl)methyl)cyclobutyl)phenyl)-6-((((tetrahydrofuran-3-yl)methyl)amino)methyl)-4-(trifluoromethyl)isoindolin-1-one formate]
IC50 (Cbl-b): 16 nM | IC50 (c-Cbl): 15 nM

CCCNCc1cc2c(c(C(F)(F)F)c1)CN(c1cc(NC(C)C)cc(C3(Cc4nncn4C)CCC3)c1)C2=O [Compound 456, 2-(3-(isopropylamino)-5-(1-((4-methyl-4H-1,2,4-triazol-3-yl)methyl)cyclobutyl)phenyl)-6-((propylamino)methyl)-4-(trifluoromethyl)isoindolin-1-one]
IC50 (Cbl-b): 13 nM | IC50 (c-Cbl): 7.6 nM | (fold-selectivity) (c-Cbl): (0.56x)

Cn1cnnc1[C@H](F)C1(c2cccc(N3Cc4c(cc(CN5CC6(COC6)C5)cc4C(F)(F)F)C3=O)c2)COC1 [Compound 9, (R)-6-(2-oxa-6-azaspiro[3.3]heptan-6-ylmethyl)-2-(3-(3-(fluoro(4-methyl-4H-1,2,4-triazol-3-yl)methyl)oxetan-3-yl)phenyl)-4-(trifluoromethyl)isoindolin-1-one]
IC50 (Cbl-b): 160 nM | IC50 (c-Cbl): 350 nM | (fold-selectivity) (c-Cbl): 2.1x

Cn1cnnc1CC1(c2cccc(N3Cc4c(cc(CNC5(C)CCC5)cc4C(F)(F)F)C3=O)c2)CC(F)(F)C1 [Compound 232, 2-(3-(3,3-difluoro-1-((4-methyl-4H-1,2,4-triazol-3-yl)methyl)-cyclobutyl)phenyl)-6-(((1-methylcyclobutyl)amino)methyl)-4-(trifluoromethyl)isoindolin-1-one]
IC50 (Cbl-b): 11 nM | IC50 (c-Cbl): 8 nM | (fold-selectivity) (c-Cbl): (0.80x)

CC(C)[C@H]1CN(C)CCN1Cc1cc2c(c(C(F)(F)F)c1)CN(c1cccc(C3([C@H](F)c4nncn4C)COC3)c1)C2=O [Compound 188, 2-(3-(3-((S)-fluoro(4-methyl-4H-1,2,4-triazol-3-yl)methyl)oxetan-3-yl)phenyl)-6-(((S)-2-isopropyl-4-methylpiperazin-1-yl)methyl)-4-(trifluoromethyl)isoindolin-1-one]
IC50 (Cbl-b): 13 nM | IC50 (c-Cbl): 25 nM | (fold-selectivity) (c-Cbl): 2.0x
